Legend:
[1] = tested on: Beet Armyworm (Spodoptera exigua, LAPHEG); test: Bioassay on Beet Armyworm (BAW), 128-well diet tray assay; assay type: in vivo; conditions: 168 h, second instar BAW larvae, 50 μg/cm^2 on artificial diet, 25° C., five to seven days, average of eight wells, read-out: BAW % Control (or Mortality) rating
Experimental: (§1) Certain molecules disclosed in this document were tested against BAW and CL using procedures described in the following examples. In the reporting of the results, the “BAW & CL Rating Table” was used (See Table Section).
Bioassays on BAW were conducted using a 128-well diet tray assay. One to five second instar BAW larvae were placed in each well (3 mL) of the diet tray that had been previously filled with 1 mL of artificial diet to which 50 μg/cm^2 of the test molecule (dissolved in 50 μL of 90:10 acetone-water mixture) had been applied (to each of eight wells) and then allowed to dry. Trays were covered with a clear self-adhesive cover, vented to allow gas exchange, and held at 25° C., 14:10 light-dark for five to seven days. Percent mortality was recorded for the larvae in each well; activity in the eight wells was then averaged. The results are indicated in the table entitled “Table ABC: Biological Results” (See Table Section).

[2] = tested on: Cabbage Looper (Trichoplusia ni, TRIPNI); test: Bioassay on Cabbage Looper (CL), 128-well diet tray assay; assay type: in vivo; conditions: 168 h, second instar CL larvae, 50 μg/cm^2 on artificial diet, 25° C., five to seven days, average of eight wells, read-out: CL % Control (or Mortality) rating
Experimental: as §1
Bioassays on CL were conducted using a 128-well diet tray assay. One to five second instar CL larvae were placed in each well (3 mL) of the diet tray that had been previously filled with 1 mL of artificial diet to which 50 μg/cm^2 of the test molecule (dissolved in 50 μL of 90:10 acetone-water mixture) had been applied (to each of eight wells) and then allowed to dry. Trays were covered with a clear self-adhesive cover, vented to allow gas exchange, and held at 25° C., 14:10 light-dark for five to seven days. Percent mortality was recorded for the larvae in each well; activity in the eight wells was then averaged. The results are indicated in the table entitled “Table ABC: Biological Results” (See Table Section).

Row | Structure (SMILES) | melting point | mortality at 50 µg/cm2 [1] | mortality at 50 µg/cm2 [2]
1 | CCCc1ccc(C)cc1N1C(=O)CS/C1=N\C(=O)Nc1c(F)cc(OCc2ncn(-c3ccc(OC(F)(F)F)cc3)n2)cc1F | 169 to 172 °C |  | 
2 | COCc1ccc(C)cc1N1C(=O)CS/C1=N\C(=O)Nc1ccc(OCc2ncn(-c3ccc(OC(F)(F)F)cc3)n2)cc1F | 132 to 134 °C |  | 
3 | COCc1ccc(C)cc1N1C(=O)CS/C1=N\C(=O)Nc1ccc(OCc2ncn(-c3ccc(OC(F)(F)F)cc3)n2)cc1 | 165 to 167 °C |  | 
4 | COC(C)c1ccc(C)cc1N1C(=O)CS/C1=N\C(=O)Nc1ccc(OCc2ncn(-c3ccc(OC(F)(F)F)cc3)n2)cc1F (centres unmarked) [F20, (Z)-1-(2-Fluoro-4-((1-(4-(trifluoromethoxy)phenyl)-1H-1,2,4-triazol-3-yl)methoxy)phenyl)-3-(3-(2-(1-methoxyethyl)-5-methylphenyl)-4-oxothiazolidin-2-ylidene)urea] |  | 50 to 100% | 50 to 100%
5 | COc1cc(OCc2ncn(-c3ccc(OC(F)(F)F)cc3)n2)ccc1NC(=O)/N=C1\SCC(=O)N1c1cc(C)ccc1C(C)C [F32, (Z)-1-(3-(2-Isopropyl-5-methylphenyl)-4-oxothiazolidin-2-ylidene)-3-(2-methoxy-4-((1-(4-(trifluoromethoxy)phenyl)-1H-1,2,4-triazol-3-yl)methoxy)phenyl)urea] |  | 50 to 100% | 50 to 100%
6 | CCCc1ccc(C)cc1N1C(=O)CS/C1=N\C(=O)Nc1ccc(COc2ncn(-c3ccc(OC(F)(F)F)cc3)n2)c(OC)c1 [F10, (Z)-1-(3-Methoxy-4-(((1-(4-(trifluoromethoxy)phenyl)-1H-1,2,4-triazol-3-yl)oxy)methyl)phenyl)-3-(3-(5-methyl-2-propylphenyl)-4-oxothiazolidin-2-ylidene)urea] |  | 0% | 0%
7 | CCCc1ccc(C)cc1N1C(=O)CS/C1=N\C(=O)Nc1ccc(OCc2ncn(-c3ccc(OC(F)(F)F)cc3)n2)c(F)c1 [F36, (Z)-1-(3-Fluoro-4-((1-(4-(trifluoromethoxy)phenyl)-1H-1,2,4-triazol-3-yl)methoxy)phenyl)-3-(3-(5-methyl-2-propylphenyl)-4-oxothiazolidin-2-ylidene)urea] |  | 50 to 100% | 50 to 100%
8 | COCc1ccc(C)cc1N1C(=O)CS/C1=N\C(=O)Nc1ccc(OCc2ncn(-c3ccc(OC(F)(F)F)cc3)n2)cc1C [F27, (Z)-1-(3-(2-(Methoxymethyl)-5-methylphenyl)-4-oxothiazolidin-2-ylidene)-3-(2-methyl-4-((1-(4-(trifluoromethoxy)phenyl)-1H-1,2,4-triazol-3-yl)methoxy)phenyl)urea] |  | 50 to 100% | 50 to 100%
9 | CCCc1ccc(C)cc1N1C(=O)CS/C1=N\C(=O)Nc1ccc(COc2ncn(-c3ccc(OC(F)(F)F)cc3)n2)cn1 [F13, (Z)-1-(3-(5-Methyl-2-propylphenyl)-4-oxothiazolidin-2-ylidene)-3-(5-(((1-(4-(trifluoromethoxy)phenyl)-1H-1,2,4-triazol-3-yl)oxy)methyl)pyridin-2-yl)urea] |  | 50 to 100% | 50 to 100%
10 | CCCc1ccc(C)cc1N1C(=O)CS/C1=N\C(=O)Nc1ccc(OCc2ncn(-c3ccc(OC(F)(F)F)cc3)n2)nc1 [F45, (Z)-1-(3-(5-Methyl-2-propylphenyl)-4-oxothiazolidin-2-ylidene)-3-(6-((1-(4-(trifluoromethoxy)phenyl)-1H-1,2,4-triazol-3-yl)methoxy)pyridin-3-yl)urea] |  | 0 to 50% | 0%
11 | CCCc1ccc(C)cc1N1C(=O)CS/C1=N\C(=O)Nc1ccc(COc2ncn(-c3ccc(OC(F)(F)F)cc3)n2)c(F)c1 [F7, (Z)-1-(3-Fluoro-4-(((1-(4-(trifluoromethoxy)phenyl)-1H-1,2,4-triazol-3-yl)oxy)methyl)phenyl)-3-(3-(5-methyl-2-propylphenyl)-4-oxothiazolidin-2-ylidene)urea] |  | 50 to 100% | 50 to 100%
12 | Cc1ccc(C(C)C)c(N2C(=O)CS/C2=N\C(=O)Nc2ccc(COc3ncn(-c4ccc(OC(F)(F)F)cc4)n3)cc2)c1 [F1, (Z)-1-(3-(2-isopropyl-5-methylphenyl)-4-oxothiazolidin-2-ylidene)-3-(4-(((1-(4-(trifluoromethoxy)phenyl)-1H-1,2,4-triazol-3-yl)oxy)methyl)phenyl)urea] |  | 50 to 100% | 50 to 100%
13 | CCCc1ccc(C)cc1N1C(=O)CS/C1=N\C(=O)Nc1ccc(OCc2ncn(-c3ccc(OC(F)(F)F)cc3)n2)cc1F [F23, (Z)-1-(2-Fluoro-4-((1-(4-(trifluoromethoxy)phenyl)-1H-1,2,4-triazol-3-yl)methoxy)phenyl)-3-(3-(5-methyl-2-propylphenyl)-4-oxothiazolidin-2-ylidene)urea] |  | 50 to 100% | 50 to 100%
14 | Cc1cc(N2C(=O)CS/C2=N\C(=O)Nc2ccc(COc3ncn(-c4ccc(OC(F)(F)F)cc4)n3)cc2F)c(C(C)C)cc1F [F12, (Z)-1-(3-(4-Fluoro-2-isopropyl-5-methylphenyl)-4-oxothiazolidin-2-ylidene)-3-(2-fluoro-4-(((1-(4-(trifluoromethoxy)phenyl)-1H-1,2,4-triazol-3-yl)oxy)methyl)phenyl)urea] |  | 50 to 100% | 50 to 100%
15 | Cc1ccc(C(C)C)c(N2C(=O)CS/C2=N\C(=O)Nc2ccc(OCc3ncn(-c4ccc(OC(F)(F)F)cc4)n3)cc2Cl)c1 [F29, (Z)-1-(2-Chloro-4-((1-(4-(trifluoromethoxy)phenyl)-1H-1,2,4-triazol-3-yl)methoxy)phenyl)-3-(3-(2-isopropyl-5-methylphenyl)-4-oxothiazolidin-2-ylidene)urea] |  | 50 to 100% | 50 to 100%
16 | Cc1ccc(C(C)C)c(N2C(=O)CS/C2=N\C(=O)Nc2c(F)cc(OCc3ncn(-c4ccc(OC(F)(F)F)cc4)n3)cc2F)c1 [F18, (Z)-1-(2,6-Difluoro-4-((1-(4-(trifluoromethoxy)phenyl)-1H-1,2,4-triazol-3-yl)methoxy)phenyl)-3-(3-(2-isopropyl-5-methylphenyl)-4-oxothiazolidin-2-ylidene)urea] |  | 50 to 100% | 50 to 100%
17 | Cc1ccc(C(C)C)c(N2C(=O)CS/C2=N\C(=O)Nc2ccc(OCc3ncn(-c4ccc(OC(F)(F)F)cc4)n3)cc2C)c1 [F25, (Z)-1-(3-(2-Isopropyl-5-methylphenyl)-4-oxothiazolidin-2-ylidene)-3-(2-methyl-4-((1-(4-(trifluoromethoxy)phenyl)-1H-1,2,4-triazol-3-yl)methoxy)phenyl)urea] |  | 50 to 100% | 50 to 100%
18 | COCc1ccc(C)cc1N1C(=O)CS/C1=N\C(=O)Nc1cc(F)c(OCc2ncn(-c3ccc(OC(F)(F)F)cc3)n2)c(F)c1 [F43, (Z)-1-(3,5-Difluoro-4-((1-(4-(trifluoromethoxy)phenyl)-1H-1,2,4-triazol-3-yl)methoxy)phenyl)-3-(3-(2-(methoxymethyl)-5-methylphenyl)-4-oxothiazolidin-2-ylidene)urea] |  | 50 to 100% | 50 to 100%
19 | Cc1ccc(C(C)C)c(N2C(=O)CS/C2=N\C(=O)Nc2ccc(COc3ncn(-c4ccc(OC(F)(F)F)cc4)n3)cn2)c1 [F14, (Z)-1-(3-(2-Isopropyl-5-methylphenyl)-4-oxothiazolidin-2-ylidene)-3-(5-(((1-(4-(trifluoromethoxy)phenyl)-1H-1,2,4-triazol-3-yl)oxy)methyl)pyridin-2-yl)urea] |  | 50 to 100% | 50 to 100%

Reference: US9617253B2, “Molecules having pesticidal utility, and intermediates, compositions, and processes, related thereto” (Dow AgroSciences LLC, priority 2015, dated 2017)
